# Measured values from patent US10047074B2, “Pharmaceutical compound” (IOmet Pharma Ltd., priority 2014, dated 2018).
# Legend:
# [1] = target: T1, IDO (SKOV3) (Homo sapiens, UniProt P14902); assay: SKOV3 Kynurenine cell based assay; conditions: SKOV3 human ovarian adenocarcinoma cells, IDO induced by IFN-γ; kynurenine production, 48 hours
# T1 construct: IDO expression was induced in the SKOV3 cells by the addition of 500 ng/ml IFN-γ; endogenous in cells; host or cells: SKOV3 (human ovarian adenocarcinoma), IFN-γ induced
# T1 sequence (P14902 whole entry): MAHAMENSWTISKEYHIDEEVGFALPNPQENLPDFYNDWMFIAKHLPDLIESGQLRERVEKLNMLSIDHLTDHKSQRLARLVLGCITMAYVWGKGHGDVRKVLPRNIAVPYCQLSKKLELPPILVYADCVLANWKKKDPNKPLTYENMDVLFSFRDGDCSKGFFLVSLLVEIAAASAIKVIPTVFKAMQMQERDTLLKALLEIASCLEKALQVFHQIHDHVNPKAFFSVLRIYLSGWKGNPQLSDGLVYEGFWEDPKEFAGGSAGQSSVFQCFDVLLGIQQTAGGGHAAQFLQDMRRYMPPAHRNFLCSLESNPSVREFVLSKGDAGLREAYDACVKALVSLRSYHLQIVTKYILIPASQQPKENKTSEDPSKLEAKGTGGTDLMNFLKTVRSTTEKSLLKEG
# Method: (§1) Exemplary compounds of the invention were prepared, and tested to determine their effect as TDO and/or IDO inhibitors. Two different assays were employed: 1. a cell-based assay for detecting the effect of test compounds on kynurenine production in two different cancer cell types. This assay utilised cancer cells which expressed either TDO (A172) or IDO (SKOV3) and as such was used as a means of testing compound activity at these two enzymes in a cell-based context. 2. a TDO and IDO biochemical coupled assay which utilised recombinantly produced and purified TDO and IDO enzymes in combination with the enzyme formamidase. This coupled enzyme system allowed conversion of N-formylkynurenine produced by TDO or IDO activity to kynurenine which was then quantified by fluorescence following addition of Erhlich's Reagent The protocols for these are set out below.
# (§2) Cell Based Assay for Detection of Kynurenine Produced by TDO and/or IDO
# (§3) A172 (human glioblastoma) and SKOV3 (human ovarian adenocarcinoma) cells were seeded in a 96 well plate at 30,000 or 40,000 cells per well respectively in phenol red-free RPMI supplemented with 10% FCS, 2 mM L-glutamine and 500 µM L-tryptophan. IDO expression was induced in the SKOV3 cells by the addition of 500 ng/ml IFN-γ. Cells were incubated at 37° C. with or without the addition of test compound. After 48 hours, the cells were removed by centrifugation and Erhlich's reagent was added to the supernatant.
# [2] = target: T2, TDO (A172) (Homo sapiens, UniProt P48775); assay: A172 Kynurenine cell based assay; conditions: A172 human glioblastoma cells expressing TDO; kynurenine production, 48 hours
# T2 construct: This assay utilised cancer cells which expressed either TDO (A172) or IDO (SKOV3); endogenous in cells; host or cells: A172 (human glioblastoma)
# T2 sequence (P48775 whole entry): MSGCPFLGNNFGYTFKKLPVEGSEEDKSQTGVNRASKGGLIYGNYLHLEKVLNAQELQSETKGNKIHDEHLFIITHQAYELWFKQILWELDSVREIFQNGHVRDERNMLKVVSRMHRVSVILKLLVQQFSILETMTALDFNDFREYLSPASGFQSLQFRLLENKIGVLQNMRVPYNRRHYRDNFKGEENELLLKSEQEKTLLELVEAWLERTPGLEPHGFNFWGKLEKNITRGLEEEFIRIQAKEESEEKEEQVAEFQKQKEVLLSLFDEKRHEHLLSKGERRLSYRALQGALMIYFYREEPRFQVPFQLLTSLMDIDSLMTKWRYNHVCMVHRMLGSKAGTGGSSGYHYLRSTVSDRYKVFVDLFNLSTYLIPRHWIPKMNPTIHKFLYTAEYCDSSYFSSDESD
# Method: as §1, §2
# as §3, with “supernatant. The Erhlich's reagent was incubated for 5 minutes before the absorbance was read at 490 nm.” for “supernatant.”
SMILES,SKOV3 Kynurenine cell based assay pIC50 [1],A172 Kynurenine cell based assay pIC50 [2]
Nc1oncc1-c1ccc(Cl)cc1 [Compound 2],++ (++ = pIC50 4.50-5.49),+++ (+++ = pIC50 ≥ 5.50)
Cc1ccc(-c2cnoc2N)cc1 [Compound 3],++ (++ = pIC50 4.50-5.49),+++ (+++ = pIC50 ≥ 5.50)
COc1ccc(-c2cnoc2N)cc1 [Compound 4],++ (++ = pIC50 4.50-5.49),++ (++ = pIC50 4.50-5.49)
Cc1noc(N)c1-c1ccc(F)cc1 [Compound 6],+/− (+/− = pIC50 < 4.00),++ (++ = pIC50 4.50-5.49)
CC(C)(C)C(=O)Nc1oncc1-c1ccc(F)cc1 [Compound 8],++ (++ = pIC50 4.50-5.49),+/− (+/− = pIC50 < 4.00)
Cc1noc(N)c1-c1ccc(Cl)cc1 [Compound 9],+ (+ = pIC50 4.00-4.49),++ (++ = pIC50 4.50-5.49)
Cc1noc(N)c1-c1ccccc1 [Compound 10],+ (+ = pIC50 4.00-4.49),++ (++ = pIC50 4.50-5.49)
Nc1oncc1-c1ccccn1 [Compound 11],+ (+ = pIC50 4.00-4.49),++ (++ = pIC50 4.50-5.49)
Nc1oncc1-c1ccc(F)c(F)c1 [Compound 12],++ (++ = pIC50 4.50-5.49),+++ (+++ = pIC50 ≥ 5.50)
Nc1oncc1-c1ccc(F)cc1F [Compound 14],++ (++ = pIC50 4.50-5.49),++ (++ = pIC50 4.50-5.49)
Nc1oncc1-c1ccccc1Cl [Compound 15],++ (++ = pIC50 4.50-5.49),+ (+ = pIC50 4.00-4.49)
Nc1oncc1-c1cccnc1 [Compound 16],++ (++ = pIC50 4.50-5.49),++ (++ = pIC50 4.50-5.49)
O=C(Nc1oncc1-c1ccccc1)c1ccccc1 [Compound 18],++ (++ = pIC50 4.50-5.49),++ (++ = pIC50 4.50-5.49)
O=C(Cc1ccccc1)Nc1oncc1-c1ccccc1 [Compound 19],++ (++ = pIC50 4.50-5.49),+ (+ = pIC50 4.00-4.49)
Nc1oncc1-c1ccccc1F [Compound 20],++ (++ = pIC50 4.50-5.49),++ (++ = pIC50 4.50-5.49)
CNc1oncc1-c1ccccc1 [Compound 21],++ (++ = pIC50 4.50-5.49),++ (++ = pIC50 4.50-5.49)
Oc1oncc1-c1ccccc1 [Compound 23],+/− (+/− = pIC50 < 4.00),++ (++ = pIC50 4.50-5.49)
O=C(CC1CCCCC1)Nc1oncc1-c1ccccc1 [Compound 24],++ (++ = pIC50 4.50-5.49),++ (++ = pIC50 4.50-5.49)
COCC(=O)Nc1oncc1-c1ccccc1 [Compound 25],++ (++ = pIC50 4.50-5.49),+++ (+++ = pIC50 ≥ 5.50)
O=C(Nc1oncc1-c1ccccc1)C1CC1 [Compound 27],++ (++ = pIC50 4.50-5.49),++ (++ = pIC50 4.50-5.49)
CCOC(=O)CCC(=O)Nc1oncc1-c1ccccc1 [Compound 28],++ (++ = pIC50 4.50-5.49),+++ (+++ = pIC50 ≥ 5.50)
O=S(=O)(Cc1ccccc1)Nc1oncc1-c1ccccc1 [Compound 29],++ (++ = pIC50 4.50-5.49),+ (+ = pIC50 4.00-4.49)
CC(C)S(=O)(=O)Nc1oncc1-c1ccccc1 [Compound 30],+ (+ = pIC50 4.00-4.49),++ (++ = pIC50 4.50-5.49)
CC(C)CS(=O)(=O)Nc1oncc1-c1ccccc1 [Compound 31],++ (++ = pIC50 4.50-5.49),+/− (+/− = pIC50 < 4.00)

SMILES,SKOV3 Kynurenine cell based assay pIC50 [1],A172 Kynurenine cell based assay pIC50 [2]
O=S(=O)(CC1CCOCC1)Nc1oncc1-c1ccccc1 [Compound 32],+ (+ = pIC50 4.00-4.49),+/− (+/− = pIC50 < 4.00)
O=C(O)CCC(=O)Nc1oncc1-c1ccccc1 [Compound 33],+/− (+/− = pIC50 < 4.00),+ (+ = pIC50 4.00-4.49)
CC(=O)N1CCC(C(=O)Nc2oncc2-c2ccccc2)CC1 [Compound 35],+ (+ = pIC50 4.00-4.49),++ (++ = pIC50 4.50-5.49)
CN1CCC(C(=O)Nc2oncc2-c2ccccc2)CC1 [Compound 36],+ (+ = pIC50 4.00-4.49),++ (++ = pIC50 4.50-5.49)
CN(C)CC(=O)Nc1oncc1-c1ccccc1 [Compound 37],++ (++ = pIC50 4.50-5.49),++ (++ = pIC50 4.50-5.49)
CS(=O)(=O)N1CCC(C(=O)Nc2oncc2-c2ccccc2)CC1 [Compound 38],+ (+ = pIC50 4.00-4.49),++ (++ = pIC50 4.50-5.49)
O=C(Nc1oncc1-c1ccccc1)c1ccncc1 [Compound 39],++ (++ = pIC50 4.50-5.49),+ (+ = pIC50 4.00-4.49)
O=C(Nc1oncc1-c1ccccc1)c1ccccn1 [Compound 40],++ (++ = pIC50 4.50-5.49),+++ (+++ = pIC50 ≥ 5.50)
O=C(CCO)Nc1oncc1-c1ccccc1 [Compound 41],++ (++ = pIC50 4.50-5.49),+++ (+++ = pIC50 ≥ 5.50)
OCCCNc1oncc1-c1ccccc1 [Compound 42],+ (+ = pIC50 4.00-4.49),+++ (+++ = pIC50 ≥ 5.50)
CCOC(=O)CC(=O)Nc1oncc1-c1ccccc1 [Compound 43],++ (++ = pIC50 4.50-5.49),+++ (+++ = pIC50 ≥ 5.50)
O=C(Nc1oncc1-c1ccccc1)C1CCCCN1 (stereo not shown) [Compound 44],++ (++ = pIC50 4.50-5.49),+++ (+++ = pIC50 ≥ 5.50)
CCOC(=O)C(=O)Nc1oncc1-c1ccccc1 [Compound 45],+ (+ = pIC50 4.00-4.49),+++ (+++ = pIC50 ≥ 5.50)
Nc1oncc1-c1ccncc1 [Compound 46],+ (+ = pIC50 4.00-4.49),++ (++ = pIC50 4.50-5.49)
CN(CCC(=O)Nc1oncc1-c1ccccc1)S(C)(=O)=O [Compound 47],+ (+ = pIC50 4.00-4.49),++ (++ = pIC50 4.50-5.49)
CS(=O)(=O)NCCC(=O)Nc1oncc1-c1ccccc1 [Compound 48],+/− (+/− = pIC50 < 4.00),++ (++ = pIC50 4.50-5.49)
COc1ccccc1-c1cnoc1-c1ccccc1 [Compound 51],++ (++ = pIC50 4.50-5.49),++ (++ = pIC50 4.50-5.49)
c1ccc(-n2nnnc2NCC2CCCCC2)cc1 [Compound 52],+++ (+++ = pIC50 ≥ 5.50),+ (+ = pIC50 4.00-4.49)
O=S(=O)(Nc1cnoc1-c1ccccc1)c1ccc2ccccc2c1 [Compound 53],++ (++ = pIC50 4.50-5.49),+ (+ = pIC50 4.00-4.49)
O=S(=O)(Nc1cnoc1-c1ccccc1)c1cc(Cl)ccc1Cl [Compound 54],++ (++ = pIC50 4.50-5.49),+ (+ = pIC50 4.00-4.49)
CS(=O)(=O)c1ccc(Cl)c(S(=O)(=O)Nc2cnoc2-c2ccccc2)c1 [Compound 55],+ (+ = pIC50 4.00-4.49),+/− (+/− = pIC50 < 4.00)
O=S(=O)(Nc1cnoc1-c1ccccc1)N1CCCCC1 [Compound 56],++ (++ = pIC50 4.50-5.49),+/− (+/− = pIC50 < 4.00)
OCCNc1oncc1-c1ccccc1 [Compound 57],++ (++ = pIC50 4.50-5.49),+++ (+++ = pIC50 ≥ 5.50)
